Measurements from EP0251126B1, “1,7-substituted heptyne-2-ones” (priority 1986, dated 1988).

Columns and labels:
[1] = target: postsynaptic muscarinic cholinergic receptors on intestinal (ileal) longitudinal smooth muscle (Cavia porcellus, UniProt Q8VH26); assay type: biochemical, guinea-pigs; details: guinea pig ileum longitudinal muscle, carbachol as agonist
Protocol: The cavity is opened and the small intestine is removed, with about 10 cm of the terminal ileum being discarded. […] The segments are preferentially taken from the aboral end of the ileum.
The preparations are allowed to recover for an additional 12 minutes before being used in experiments.
(§1) Serial dilutions (1:10) in saline or water are made from the stock solution.
(§2) Serial dilutions (1:10) in saline or water are made from the stock solution. […] Serial dilutions (1:10) in water are made from the stock solution. Other solvents may be used when appropriate and will be specifically described in the experimental procedure. Appropriate volumes are then added to the baths in order to obtain the desired bath concentrations.
(§3) With each concentration step, the tissue contracts isometrically. The next concentration is added only after the preceding contraction has reached a steady value.
Three or four different concentrations of antagonist are studied in the same preparations. Responses are expressed relative to the maximum contraction elicited by carbachol in the absence of antagonist.

[2] = target: postsynaptic muscarinic cholinergic receptors on bladder detrusor muscle (Cavia porcellus, UniProt Q8VH26); assay type: biochemical, guinea-pigs; details: guinea pig bladder strips, carbachol as agonist
Chain of postsynaptic muscarinic cholinergic receptors on bladder detrusor muscle (Q8VH26 entry or part of it): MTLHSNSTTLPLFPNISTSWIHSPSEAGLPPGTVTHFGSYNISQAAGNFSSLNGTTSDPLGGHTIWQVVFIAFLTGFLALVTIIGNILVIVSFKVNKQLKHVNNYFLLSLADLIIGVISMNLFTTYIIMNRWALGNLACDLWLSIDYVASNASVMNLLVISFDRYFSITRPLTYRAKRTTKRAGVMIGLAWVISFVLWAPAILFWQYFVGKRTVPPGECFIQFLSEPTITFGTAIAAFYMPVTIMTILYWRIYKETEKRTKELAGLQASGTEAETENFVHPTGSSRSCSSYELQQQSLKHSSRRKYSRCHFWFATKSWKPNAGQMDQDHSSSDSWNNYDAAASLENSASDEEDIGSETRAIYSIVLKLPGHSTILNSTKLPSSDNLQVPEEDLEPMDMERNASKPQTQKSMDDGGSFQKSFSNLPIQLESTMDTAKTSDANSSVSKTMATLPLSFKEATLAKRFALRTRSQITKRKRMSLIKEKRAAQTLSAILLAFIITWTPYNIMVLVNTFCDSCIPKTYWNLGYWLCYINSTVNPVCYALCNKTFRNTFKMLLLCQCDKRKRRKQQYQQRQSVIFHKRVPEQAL
Protocol: as §1, §2, §3
Three or four different concentrations of antagonist are studied in the same preparations.

[3] = tested on: bladder contraction strength (PvesP); assay type: in vivo, Guinea pigs; details: T-1/2 of the compound compared with T-1/2 of oxybutynin
From the text: To assess test compounds with a more intact model system, a method which more closely mimics the natural slow filling of the bladder is used.
This clinical CMG is produced by catheterizing the bladder so it may be filled, emptied and refilled with fluid while simultaneously measuring the internal bladder pressure (Pves). […] This allows the bladder to reach maximum capacity/pressure before sensory systems initiate the normal urge and micturition reflex patterns. We use a modification of this clinical test to determine duration of action of test compounds by repeated filling of the bladder following i.v. administration of the test compound. Peak pressure above the threshold pressure is the primary measure of action which can be inhibited by the test compounds and can be used to determine potency and duration of action in this anesthetized Guinea pig model. […]
Test drugs and reference compounds are normally prepared as a solution in normal saline, acidified or made basic as needed to get the compound into solution at the desired concentration. Drugs are delivered at selected mg/kg (calculated as free base) doses i.v. in a volume of approximately 0.5 to 0.8 ml. […]

Chain of postsynaptic muscarinic cholinergic receptors on intestinal (ileal) longitudinal smooth muscle (Q8VH26 entry or part of it): as above

Row | Molecule | Bladder Kb [2] | Ileum Kb [1] | half-lives of PvesP depression relative to oxybutynin [3] [times longer] | also measured
1 | 1-(6-Diethylaminohex-4-yn-2-one)-1-hydroxy-1,2,3,4-tetrahydronaphthalene N-cyclohexylsulfamate hydrate [Compound 11] |  |  |  | Kb [1]: > 1 µM; Kb [2]: 0.512 µM
2 | CCN(CC)CC#CCCC1(C(O)(c2ccccc2)C2CCCCC2)SCCCS1 (centres unmarked) [Compound 2, 1-Cyclohexyl-1-phenyl-1-hydroxy-7-diethylaminohept-5-yn-2-one bis (1,3-propylene)dithioketal hemioxalate] | enhance |  |  | 
3 | CCN(CC)CC#CCCC(=O)C(C)(O)c1ccccc1.O=C(O)C(=O)O (centres unmarked) [Compound 7, 2-Hydroxy-2-phenyl-8-(N,N-diethylamino)oct-6-yn-3-one oxalate] |  | NC 10µM |  | 
4 | CCNCC#CCCC(=O)C(O)(c1ccccc1)C1CCCCC1 (centres unmarked) [Compound 10, 1-Cyclohexyl-1-hydroxy-phenyl-7-ethylamino-hept-5-yn-2-one hemifumarate, hydrate] |  |  | 1.78 | 
5 | CN(C)CC#CCCC(=O)C(O)(c1ccccc1)C1CCCCC1 (centres unmarked) [Compound 18, 1-Cyclohexyl-1-hydroxy-1-phenyl-7-dimethylaminohept-5-yn-2-one] |  |  | 2.65 | 
6 | CCN(CC)CC#CCC(=O)CC1(O)CCc2ccccc21.CCN(CC)CC#CCC(=O)CC1(O)CCc2ccccc21.O.O=C(O)C(=O)O.O=C(O)C(=O)O (centres unmarked) [Compound 21, 1-(6-N,N-Diethylaminohex-4-yn-2-one)-1-hydroxyindan oxalate semihydrate] | N.E. | N.E. |  | 
